Source: patent publication US20050148630A1, “Methods of preventing and treating non-opioid induced gastrointestinal dysfunction” (priority 2003, published 2005)

Assays:
[1] = tested on: subjects with functional constipation; assay: Oral-cecal transit time, lactulose hydrogen breath test, cross-over study; type: in vivo, human; settings: 3 mg BID, Day 7, lactulose hydrogen breath test
Description: (§1) Subjects underwent measurement of their whole bowel transit (radio-opaque markers) and oral-cecal transit (hydrogen-breath test) prior to receiving the first treatment (baseline) and at the end of each treatment period. During the screening and treatment periods, subjects recorded the time of each bowel movement (defecatory frequency), an assessment of each stool's consistency (using the Bristol Stool Form Scale), and an overall rating of their satisfaction with their bowel movements over each period (1-5 scale: 1=much worse than usual, 2=worse than usual, 3=no change, 4=better than usual, 5=much better than usual). Stool output per 7-day period was calculated from the weight of all stools collected during each treatment period (stools collected over the 7-day assessment period).
The transit time for mouth to cecum, a reflection of small bowel transit, was measured utilizing the hydrogen breath test. […] The time between ingestion of lactulose (10 g) and the sustained increase in hydrogen in the breath (hydrogen concentration in end-expiratory breath samples as measured by gas chromatography) represents the oral-cecal transit time (OCTT). […] Breath samples were measured every 15 minutes following ingestion of the lactulose. Transit time was determined by the first time of three consecutive samples in which there was at least a doubling of the baseline breath hydrogen concentration. […]

[2] = tested on: subjects with functional constipation; assay: Bowel movement frequency and symptoms by patient self-report diary card, cross-over study; type: in vivo, human
Description: as §1
Each treatment period comprised seven days of dosing (oral alvimopan 3 mg or matching placebo, given at 8:00 AM and 8:00 PM). For each defecation, subjects recorded the time, date, and stool form (Bristol Stool Form Criteria) (Heaton, et al., Gut, 1991, 73-79). Subjects rated their overall satisfaction with their bowel movements for the treatment period on Day 7.
For Day 1 of each treatment period, the following procedures were conducted in the clinic prior to the morning dosing: a urine drug screen, and a urine/serum pregnancy test (when applicable), semi-supine (i.e., 45-degree angle, pillow, etc.) blood pressure and pulse rate measurements and recording of baseline signs and symptoms. All subjects received their first dose of alvimopan 3 mg or placebo after a light breakfast in the clinic at approximately 8 AM in the morning and according to the randomization schedule. Each dose of alvimopan or placebo was taken with 240 ml of still room-temperature water at each dosing occasion. Subjects were then dispensed the study drug to be taken until the evening dose on Day 5, as well as the Stizmark capsules containing the radio-opaque markers and discharged. Subjects were admitted to the study unit on the evening of Day 5 until completion of the transit studies on Day 7. They were asked to complete a medication diary with the times of morning and evening dosing as an outpatient, as well as any symptoms they experienced at home. Subjects collected all stools from Days 1 to 7. Subjects recorded the time, date, and stool form (Bristol Stool Form Criteria) (Heaton, et al., Gut, 1991, 73-79) for each defecation. Subjects rated their overall satisfaction with their bowel movements for the treatment period on Day 7.
(§2) This single-center, randomized, placebo-controlled, crossover trial was designed to determine the effect of alvimopan on bowel transit of patients with chronic constipation. Whole bowel transit (WBT), bowel movement frequency as total bowel movement (BM), and spontaneous complete BM (SCBM), BM symptoms of straining, discomfort, and satisfaction were compared between placebo and alvimopan (3 mg BID) for 7 days. Safety and tolerability were assessed.
(§3) The following were performed for each test arm: WBT estimated by a weighted sum of retained radio-opaque markers (based on number and location in the colon on single x-ray 48 hours post marker ingestion) and mean colonic transit time (MCTT) calculated by the method of Metcalf et al., Gastroenterology, 1987, 92: 40-47; and bowel movement frequency (BMF) and symptoms by patient self-report diary card.

[3] = tested on: subjects with functional constipation; assay: Safety and tolerability in the cross-over study; type: in vivo, human; settings: 3 mg BID for 7 days
Description: Subjects were given a physical examination, vital signs, and blood and urine samples obtained for safety laboratory studies at the conclusion of their last treatment period. Any abnormal findings were followed until resolution.
as §2

[4] = tested on: subjects with functional constipation; assay: Whole bowel transit (radio-opaque markers) and mean colonic transit time, placebo-controlled cross-over study; type: in vivo, human; settings: 3 mg BID for 7 days
Procedure: A single-center, placebo-controlled, randomized, double-blind, balanced two period cross-over study of the effect of alvimopan on GI transit in subjects with functional constipation was carried out.
Subjects (n=24) meeting the initial screening criteria for functional constipation by history, and who had 3 or fewer stools during a 7-day screening period, were randomly assigned to receive initially either orally-administered alvimopan, 3 mg twice daily for 7 days or matching placebo. Following a two- to four-week washout period, subjects received the opposite treatment for a 7-day period.
as §1
Whole bowel transit was determined by using a modification of the radio-opaque marker method developed by Metcalf et al., Gastroenterology, 1987, 92: 40-47. This method is reproducible and correlates well with scintigraphic methods of measuring colonic transit (Degen, et al., Gut, 1996, 39: 299-305). Subjects ingested, at 8:00 AM on the mornings of Days 3, 4, 5, one capsule containing 24 radio-opaque markers (Sitzmark; Konsyl Pharmaceuticals, Fort Worth, Tex.). Stools from Days 3 to 7 were collected and examined by x-ray for the presence of the radio-opaque markers. […] Weights were assigned to the six locations in the colon and a weighted average of the number of radio-opaque markers in the colon was calculated. […]
This single-center, randomized, placebo-controlled, crossover trial was designed to determine the effect of alvimopan on bowel transit of patients with chronic constipation. […] Safety and tolerability were assessed.
as §3

Solubility in water = type: physicochemical; settings: except at low or high pH conditions
healthy volunteers = assay: Ascending dose level safety study (Phase I) of alvimopan, TID for 4 days; type: in vivo
Description: This was an ascending dose level safety study (Phase I) intended to determine the frequency and severity of adverse events (AEs) and to estimate the maximum tolerated dose of alvimopan. Subjects were screened to ensure their status as healthy volunteers. They were only enrolled if they had no clinically significant abnormalities on history, physical, or laboratory examinations. Post study physical examination and laboratory tests, including serum chemistries and complete blood count, were performed.
Alvimopan or placebo was administered TID for 4 days.
One subject in each dose group was randomly assigned to receive placebo that was identical in appearance to the active study medication.
Forty-four subjects were randomized for treatment. One subject at each dose level received placebo (N=5); the rest received alvimopan. […] The incidence of gastrointestinal AEs increased with increasing dose of alvimopan. One or more incidence of mild or moderate “abdominal pain” was reported by 83-100% of subjects receiving 18 or 54 mg daily doses (6 or 18 mg TID), but was infrequent at lower doses (range 11-18%). One or more incidence of diarrhea was reported by 83% of subjects receiving 54 mg daily doses (18 mg TID), but was infrequent at lower doses (range 9-22%). One or more incidence of flatulence was reported by 50-78% of subjects receiving 18 or 54 mg daily doses (6 or 18 mg TID), but was less frequent at lower doses (range 18-33%). One subject receiving the highest dose, 54 mg/day (18 mg TID), withdrew during the second day of dosing due to adverse events of abdominal pain, nausea, and diarrhea.

[5] = 18 or 54 mg daily doses (6 or 18 mg TID)

## C[C@H]1CN(C[C@H](Cc2ccccc2)C(=O)NCC(=O)O)CC[C@@]1(C)c1cccc(O)c1 [alvimopan, [[(2S)-2-[[(3R,4R)-4-(3-hydroxyphenyl)-3,4-dimethylpiperidin-1-yl]methyl]-3-phenylpropanoyl]amino]acetic acid dihydrate]
[1]
  OCTT v. placebo: not changed
[2]; 3 mg BID for 7 days
  BM consistency compared to placebo: improved
  BM discomfort compared to placebo: improved
  BM satisfaction compared to placebo: improved
  BM straining compared to placebo: improved
[2]; 3 mg BID over 7 days, placebo 0.3
  mean increase above baseline for SCBM: 0.6
[2]; 3 mg BID over 7 days, placebo 0.5
  mean increase above baseline for BMF: 1.0
[2]; FIG. 2, 3 mg BID for 7 days
  mean bowel movement Bristol Stool Form Scale score: increased
[2]; FIG. 3, 3 mg BID for 7 days
  % of bowel movements with no/mild straining or discomfort: increased
[3]
  incidence of GI-related adverse effects versus placebo arm: slightly higher
[3]; both arms
  severity of adverse events: generally mild
[3]; either treatment arm
  premature discontinuation due to an adverse effect: No subjects prematurely discontinued
[4]
  reduction in MCTT versus placebo: 19%
[4]; p<0.049
  reduction in weighted sum of retained radio-opaque markers (faster whole bowel transit) versus placebo: 32%
[4]; placebo 69±5
  mean colonic transit time (MCTT): 56 ± 6 h
[4]; placebo 160±17
  WBT, weighted sum of retained radio-opaque markers: 109±17 WSM
Solubility in water
  solubility in water: low solubility
Healthy volunteers; 54 mg daily doses (18 mg TID)
  subjects reporting one or more incidence of diarrhea: 83%
Healthy volunteers; 54 mg/day (18 mg TID), second day of dosing
  subjects withdrawn due to adverse events of abdominal pain, nausea, and diarrhea: One
Healthy volunteers; [5]
  subjects reporting one or more incidence of flatulence: 50-78%
  subjects reporting one or more incidence of mild or moderate abdominal pain: 83-100%
Healthy volunteers; doses up to 54 mg daily (18 mg TID) for 4 days
  tolerability: generally well tolerated
Healthy volunteers; lower doses
  subjects reporting one or more incidence of diarrhea: 9-22%
  subjects reporting one or more incidence of flatulence: 18-33%
  subjects reporting one or more incidence of mild or moderate abdominal pain: 11-18%
